Source: patent US20220323406A1, “METHODS AND COMPOSITIONS FOR DIFFERENTIATING STEM CELLS” (Massachusetts Institute of Technology, priority 2019, published 2022)

Columns and labels:
[1] = test system: ENR+CD organoids (ISC to Paneth cell differentiation); experiment: Primary screen: CCh-stimulated lysozyme secretion LYZ.S, 2.5-D 384-well ENR+CD organoid differentiation; type: cell-based, mouse; conditions: primary screen
Description: (§1) High-throughput screening.

[2] = test system: ENR+CD organoids (ISC to Paneth cell differentiation); experiment: Primary screen: basal (non-stimulated) lysozyme secretion LYZ.NS, 2.5-D 384-well ENR+CD organoid differentiation; type: cell-based, mouse
Description: as §1

[3] = test system: ENR+CD organoids; experiment: Primary screen: ATP (CellTiter-Glo 3D, CTG) cell number/viability, 2.5-D 384-well ENR+CD organoids; conditions: primary screen;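 also: compounds given at plating and again on day 3 over a 6-day differentiation from ENR+CV stem-cell-enriched precursors, ATP measured on day 6, plate median as control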
[4] = dose 0.08 uM, FC vs plate median
[5] = dose 0.40 uM, FC vs plate median
[6] = dose 2.00 uM, FC vs plate median
[7] = dose 10.00 uM, FC vs plate median

Row | SMILES | Dose.FC.LYZ.S ([1]; dose 0.08 uM) [log2 fold change] | Dose.FC.LYZ.S ([1]; dose 0.40 uM) [log2 fold change] | Dose.FC.LYZ.S ([1]; dose 2.00 uM) [log2 fold change] | Dose.FC.LYZ.S ([1]; dose 10.00 uM) [log2 fold change] | Dose.FC.LYZ.NS ([2]; primary screen, dose 0.08 uM) [log2 fold change] | Dose.FC.LYZ.NS ([2]; primary screen, dose 0.40 uM) [log2 fold change] | Dose.FC.LYZ.NS ([2]; primary screen, dose 2.00 uM) [log2 fold change] | Dose.FC.LYZ.NS ([2]; primary screen, dose 10.00 uM) [log2 fold change] | Dose.FC.CTG ([3]; dose 0.08 uM) [log2 fold change] | Dose.FC.CTG ([3]; dose 0.40 uM) [log2 fold change] | Dose.FC.CTG ([3]; dose 2.00 uM) [log2 fold change] | Dose.FC.CTG ([3]; dose 10.00 uM) [log2 fold change] | Z.LYZ.NS (standard z score) ([2]; primary screen, dose 0.08 uM) | Z.LYZ.NS (standard z score) ([2]; primary screen, dose 0.40 uM) | Z.LYZ.NS (standard z score) ([2]; primary screen, dose 2.00 uM) | Z.LYZ.NS (standard z score) ([2]; primary screen, dose 10.00 uM) | Z.CTG (standard z score) ([3]; dose 0.08 uM) | Z.CTG (standard z score) ([3]; dose 0.40 uM) | Z.CTG (standard z score) ([3]; dose 2.00 uM) | Z.CTG (standard z score) ([3]; dose 10.00 uM) | other results
1 | CCOC(=O)c1cncn1[C@H](C)c1ccccc1 [Etomidate] | 0.053 | 0.048 | 0.054 | −0.008 | −0.008 | 0.037 | 0.015 | −0.001 | 0.084 | 0.006 | 0.163 | 0.039 |  |  |  |  |  |  |  |  | Z.LYZ.NS ([2]; primary screen, standard z score, dose 0.08 uM): −0.065; Z.LYZ.NS ([2]; primary screen, standard z score, dose 0.40 uM): 0.318; Z.LYZ.NS ([2]; primary screen, standard z score, dose 2.00 uM): 0.131; Z.LYZ.NS ([2]; primary screen, standard z score, dose 10.00 uM): −0.010
2 | O=C(O)/C=C/c1ccc(Cn2ccnc2)cc1 [Ozagrel] |  |  |  |  |  |  |  |  |  |  |  |  |  |  |  |  |  |  |  |  | Dose.FC.LYZ.S [1, 4]: 0.145 log2 fold change; Dose.FC.LYZ.S [1, 5]: 0.096 log2 fold change; Dose.FC.LYZ.S [1, 6]: 0.104 log2 fold change; Dose.FC.LYZ.S [1, 7]: 0.011 log2 fold change; Z.LYZ.NS ([2]; primary screen, dose 0.08 uM, standard z score): 0.645; Z.LYZ.NS ([2]; primary screen, dose 0.40 uM, standard z score): 0.381; Z.LYZ.NS ([2]; primary screen, dose 2.00 uM, standard z score): 0.698; Z.LYZ.NS ([2]; primary screen, dose 10.00 uM, standard z score): −0.068; Dose.FC.LYZ.NS ([2]; primary screen; dose 0.08 uM; FC vs plate median): 0.074 log2 fold change; Dose.FC.LYZ.NS ([2]; primary screen; dose 0.40 uM; FC vs plate median): 0.044 log2 fold change; Dose.FC.LYZ.NS ([2]; primary screen; dose 2.00 uM; FC vs plate median): 0.080 log2 fold change; Dose.FC.LYZ.NS ([2]; primary screen; dose 10.00 uM; FC vs plate median): −0.008 log2 fold change; Dose.FC.CTG [3, 4]: 0.055 log2 fold change; Dose.FC.CTG [3, 5]: 0.224 log2 fold change; Dose.FC.CTG [3, 6]: −0.063 log2 fold change; Dose.FC.CTG [3, 7]: 0.113 log2 fold change
3 | CCN1CCN(c2ccc(Nc3cc(N(C)C(=O)Nc4c(Cl)c(OC)cc(OC)c4Cl)ncn3)cc2)CC1 [BGJ398 (NVP-BGJ398)] | −0.036 | 0.002 | −0.062 | −0.350 | −0.002 | −0.060 | −0.052 | −0.269 | −0.054 | 0.026 | −0.185 | −1.500 | −0.017 | −0.520 | −0.450 | −2.345 | −0.128 | 0.063 | −0.442 | −3.583 | 
4 | C/C(=C\C(=O)Nc1ccccc1C(=O)O)c1ccc2ccccc2c1 [BIBR 1532] | 0.028 | 0.107 | −0.081 | −0.114 | 0.032 | 0.043 | −0.013 | −0.062 | 0.223 | −0.047 | −0.034 | 0.030 | 0.282 | 0.377 | −0.117 | −0.536 | 0.533 | −0.113 | −0.080 | 0.072 | 
5 | CCOC(=O)N1c2ccc(C(F)(F)F)cc2[C@@H](N(Cc2cc(C(F)(F)F)cc(C(F)(F)F)c2)C(=O)OC)C[C@H]1CC [Torcetrapib] | 0.320 | 0.045 | −0.098 | −0.056 | 0.114 | −0.063 | −0.136 | −0.012 | 0.283 | 0.061 | −0.121 | −0.151 | 0.991 | −0.546 | −1.185 | −0.108 |  |  |  |  | 
